Results: patent US20260000642A1 (Tay Therapeutics Limited, priority 2022, published 2026)
Values joined by “and” are separate entries in the source; they are usually repeats but may differ in a detail not shown here. Equal values may be shown once.

System: collagen-induced arthritis in Lewis rats
Assay: Collagen-induced arthritis (CIA) model in rats: body weight, paw volume, clinical scores, clinical observations
[1] = Group 5 (CIA + Example 101 3 mg/kg), Day 13, individual animals, 3 mg/kg
[2] = Group 5 (CIA + Example 101 3 mg/kg), Day 16, individual animals, 3 mg/kg
[3] = Group 5 (CIA + Example 101 3 mg/kg), Day 17, individual animals, 3 mg/kg
[4] = Group 5 (CIA + Example 101 3 mg/kg), Day 20, individual animals, 3 mg/kg
[5] = Group 6 (CIA + Example 101 10 mg/kg), Day 2, individual animals, 10 mg/kg
[6] = Group 6 (CIA + Example 101 10 mg/kg), Day 5, individual animals, 10 mg/kg
[7] = Group 6 (CIA + Example 101 10 mg/kg), Day 6, individual animals, 10 mg/kg
[8] = Group 6 (CIA + Example 101 10 mg/kg), Day 7, individual animals, 10 mg/kg
[9] = Group 6 (CIA + Example 101 10 mg/kg), Day 13, individual animals, 10 mg/kg
[10] = Group 6 (CIA + Example 101 10 mg/kg), Day 15, individual animals, 10 mg/kg
[11] = Group 6 (CIA + Example 101 10 mg/kg), Day 18, individual animals, 10 mg/kg
[12] = Group 6 (CIA + Example 101 10 mg/kg), Day 19, individual animals, 10 mg/kg
[13] = Group 6 (CIA + Example 101 10 mg/kg), Day 20, individual animals, 10 mg/kg
[14] = Group 7 (CIA + Example 101 30 mg/kg), Day 1, individual animals, 30 mg/kg
[15] = Group 7 (CIA + Example 101 30 mg/kg), Day 9, individual animals, 30 mg/kg
[16] = Group 7 (CIA + Example 101 30 mg/kg), Day 11, individual animals, 30 mg/kg
[17] = Group 7 (CIA + Example 101 30 mg/kg), Day 12, individual animals, 30 mg/kg
[18] = Group 7 (CIA + Example 101 30 mg/kg), Day 13, individual animals, 30 mg/kg
[19] = Group 7 (CIA + Example 101 30 mg/kg), Day 15, individual animals, 30 mg/kg
[20] = Group 7 (CIA + Example 101 30 mg/kg), Day 17, individual animals, 30 mg/kg
[21] = Group 7 (CIA + Example 101 30 mg/kg), Day 20, individual animals, 30 mg/kg
[22] = Group 7 (CIA + Example 101 30 mg/kg), Day 21, individual animals, 30 mg/kg

Procedure: Prior to be randomly placed in treatment groups, animals were weighed, and paw volume was measured. Once randomly assigned to treatment groups, on Day 0, animals in groups 2-9 were immunized by subcutaneous injection at the base of the tail. The immunization comprised 100 μL of the CFA+Collagen emulsion (prepared according to the method in Experimental Method A). Animals in group one received no immunization. Seven days after the first injection, animals in groups 2-9 received a booster immunization comprising 200 μL of the IFA+Collagen emulsion (prepared according to the method in Experimental Method A).
Starting on Day 0, animals in group 1 and 2 were administered daily doses of the vehicle per os (P.O.) for 21 days.
The twice daily doses for animals in groups 4-9 were 8 hours apart (e.g., the first dose at 8:00 AM and the second dose at 4:00 PM).
Body weight of all animals was recorded daily for the 21-day period. Blind clinical scores on all four limbs were conducted for all animals in the study. Animals were assessed prior to receiving their first dose of the compound or control, and scores for each limb were combined to a total daily score for each animal. Clinical score assessments were performed on Day 0, 6, 12, 13, 14, 15, 18, 19, and 21 (for a total of 9 daily scores).
Paw volume was recorded for each animal on Day 0, 6, 12, 13, 14, 15, 18, 19, and 21 (for a total of 9 measurements). To measure paw volume, animals were gently held with one hand while the hind paw was placed into a plethysmometer with the other hand. Lipid displacement by the paw was recorded and used to represent paw volume.
At the conclusion of the study (end of the 21-day period), animals were euthanized. Euthanasia occurred four hours after animals received their first dose on the morning of Day 21. Hind limbs were collected following euthanasia, with the left limb being used for H&E staining.
All data measured and recorded was analyzed using SPSS 16.0 software. Groups were compared using one-way ANOVA and significance was set at p<0.05.
Arthritis was induced in Lewis rats by immunizing animals with the CFA+Collagen emulsion via subcutaneous injection at the base of the tail on day 0. Seven days after the first immunization, animals received a booster immunization with the IFA+Collagen emulsion via subcutaneous injection at the base of the tail.
Starting on day 0, animals in group 1 and 2 were administered daily doses of the vehicle per os (P.O.) for 21 days. […] The twice daily doses for animals in groups 4-9 were 8 hours apart (e.g., the first dose at 8:00 AM and the second dose at 4:00 PM).

Compound: CNC(=O)c1[nH]c(C(=O)NC2CCC2)cc1O[C@@H](C)c1ccccc1 [Example 101, N^5-cyclobutyl-N^2-methyl-3-(1-phenylethoxy)-1H-pyrrole-2,5-dicarboxamide]
- Animal body weight [1]: 180 g
- Animal body weight percent change [1]: 9.70%
- Animal body weight (Group 5 (CIA + Example 101 3 mg/kg), Day 14, individual animals, 3 mg/kg): 180 g
- Animal body weight [2]: 150 g and 170 g
- Animal body weight percent change [2]: 0.58%
- Animal body weight [3]: 170 g
- Animal body weight percent change [3]: −4.40%
- Animal body weight percent change (Group 5 (CIA + Example 101 3 mg/kg), Day 18, individual animals, 3 mg/kg): −4.40% and 0.00%
- Animal body weight (Group 5 (CIA + Example 101 3 mg/kg), Day 19, individual animals, 3 mg/kg): 150 g and 170 g
- Animal body weight [4]: 160 g and 170 g
- Animal body weight percent change [4]: −4.40% and 0.60%
- Animal body weight percent change (Group 5 (CIA + Example 101 3 mg/kg), Day 21, individual animals, 3 mg/kg): 0.60%
- Animal body weight percent change (Group 6 (CIA + Example 101 10 mg/kg), Day 0, individual animals): 0.00%
- Animal body weight (Group 6 (CIA + Example 101 10 mg/kg), Day 0, individual animals, 10 mg/kg): 170 g and 160 g
- Animal body weight percent change (Group 6 (CIA + Example 101 10 mg/kg), Day 1, individual animals, 10 mg/kg): 0.00% and 0.64% and 5.00%
- Animal body weight [5]: 160 g
- Animal body weight percent change [5]: 0.62%
- Animal body weight percent change (Group 6 (CIA + Example 101 10 mg/kg), Day 3, individual animals, 10 mg/kg): 0.59%
- Animal body weight percent change (Group 6 (CIA + Example 101 10 mg/kg), Day 4, individual animals, 10 mg/kg): 0.58% and 0.59% and 3.70% and −0.61% and 7.50%
- Animal body weight [6]: 170 g and 160 g
- Animal body weight percent change [6]: −0.62%
- Animal body weight [7]: 170 g
- Animal body weight percent change [7]: −1.76% and 10.00%
- Animal body weight [8]: 180 g
- Animal body weight percent change [8]: −0.61%
- Animal body weight (Group 6 (CIA + Example 101 10 mg/kg), Day 8, individual animals, 10 mg/kg): 180 g
- Animal body weight percent change (Group 6 (CIA + Example 101 10 mg/kg), Day 9, individual animals, 10 mg/kg): 3.70%
- Animal body weight percent change (Group 6 (CIA + Example 101 10 mg/kg), Day 10, individual animals, 10 mg/kg): 0.00%
- Animal body weight percent change (Group 6 (CIA + Example 101 10 mg/kg), Day 11, individual animals, 10 mg/kg): −0.59% and 0.62%
- Animal body weight [9]: 150 g and 160 g
- Animal body weight percent change [9]: 0.62% and −0.62%
- Animal body weight [10]: 170 g
- Animal body weight percent change [10]: −0.62%
- Animal body weight percent change (Group 6 (CIA + Example 101 10 mg/kg), Day 16, individual animals, 10 mg/kg): 0.00% and −0.62%
- Animal body weight percent change (Group 6 (CIA + Example 101 10 mg/kg), Day 17, individual animals, 10 mg/kg): 0.62% and 20.00%
- Animal body weight [11]: 160 g
- Animal body weight percent change [11]: 0.00%
- Animal body weight [12]: 170 g and 160 g (2×)
- Animal body weight percent change [12]: −0.58%
- Animal body weight [13]: 170 g
- Animal body weight percent change [13]: −0.62% and −0.61%
- Animal body weight percent change (Group 6 (CIA + Example 101 10 mg/kg), Day 21, individual animals, 10 mg/kg): −0.62%
- Animal body weight percent change (Group 7 (CIA + Example 101 30 mg/kg), Day 0, individual animals): 0.00%
- Animal body weight [14]: 160 g and 170 g
- Animal body weight percent change [14]: −0.61% and 1.20%
- Animal body weight (Group 7 (CIA + Example 101 30 mg/kg), Day 2, individual animals, 30 mg/kg): 170 g
- Animal body weight (Group 7 (CIA + Example 101 30 mg/kg), Day 3, individual animals, 30 mg/kg): 160 g
- Animal body weight (Group 7 (CIA + Example 101 30 mg/kg), Day 4, individual animals, 30 mg/kg): 160 g
- Animal body weight percent change (Group 7 (CIA + Example 101 30 mg/kg), Day 5, individual animals, 30 mg/kg): 0.00% and 0.61%
- Animal body weight percent change (Group 7 (CIA + Example 101 30 mg/kg), Day 7, individual animals, 30 mg/kg): 0.61%
- Animal body weight percent change (Group 7 (CIA + Example 101 30 mg/kg), Day 8, individual animals, 30 mg/kg): 7.10% and −0.61% (2×) and −0.60%
- Animal body weight [15]: 170 g
- Animal body weight percent change [15]: −0.58%
- Animal body weight percent change (Group 7 (CIA + Example 101 30 mg/kg), Day 10, individual animals, 30 mg/kg): −0.58% and 0.00% (2×)
- Animal body weight [16]: 170 g
- Animal body weight percent change [16]: 0.61%
- Animal body weight [17]: 170 g and 160 g
- Animal body weight percent change [17]: 1.20%
- Animal body weight [18]: 170 g and 160 g
- Animal body weight percent change [18]: −0.61% and 1.30%
- Animal body weight percent change (Group 7 (CIA + Example 101 30 mg/kg), Day 14, individual animals, 30 mg/kg): 2.60%
- Animal body weight [19]: 170 g and 160 g
- Animal body weight percent change [19]: 0.00% (2×) and 3.90%
- Animal body weight percent change (Group 7 (CIA + Example 101 30 mg/kg), Day 16, individual animals, 30 mg/kg): 0.65%
- Animal body weight [20]: 170 g
- Animal body weight percent change [20]: 1.30%
- Animal body weight percent change (Group 7 (CIA + Example 101 30 mg/kg), Day 18, individual animals, 30 mg/kg): −0.58% and −1.30%
- Animal body weight percent change (Group 7 (CIA + Example 101 30 mg/kg), Day 19, individual animals, 30 mg/kg): −1.20%
- Animal body weight [21]: 160 g
- Animal body weight percent change [21]: 6.10%
- Animal body weight [22]: 150 g
- Animal body weight percent change [22]: 6.10% and −2.60%
